Test system: 485368-065-R3-J5-PDC spheroids with HUVEC/MSC, viability
Experiment: Anticancer human tumor 485368-065-R3-J5-PDC patient-derived pancreatic carcinoma cell line growth inhibition [RAS]
Conditions: for IC50: curve of first compound; for viability, T/C: stronger effect = lower value
Method in brief: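 Multi-cell-type spheroids: tumor cells plus HUVEC endothelial cells and mesenchymal stem cells. RAS-pathway inhibitors were combined with targeted agents, each dosed in half-log steps down from clinical Cmax, or from 10 microM when Cmax was unknown.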

[1] = second compound 0.0316 µM, first compound 0.0316 µM
[2] = second compound 0.0316 µM, first compound 0.1 µM
[3] = second compound 0.0316 µM, first compound 0.316 µM
[4] = second compound 0.0316 µM, first compound 1 µM
[5] = second compound 0.0316 µM, first compound 3.16 µM
[6] = second compound 0.0316 µM, first compound 10 µM
[7] = second compound 0.1 µM, first compound 0.0316 µM
[8] = second compound 0.1 µM, first compound 0.1 µM
[9] = second compound 0.1 µM, first compound 0.316 µM
[10] = second compound 0.1 µM, first compound 1 µM
[11] = second compound 0.1 µM, first compound 3.16 µM
[12] = second compound 0.1 µM, first compound 10 µM
[13] = second compound 0.316 µM, first compound 0.0316 µM
[14] = second compound 0.316 µM, first compound 0.1 µM
[15] = second compound 0.316 µM, first compound 0.316 µM
[16] = second compound 0.316 µM, first compound 1 µM
[17] = second compound 0.316 µM, first compound 3.16 µM
[18] = second compound 0.316 µM, first compound 10 µM
[19] = second compound 1 µM, first compound 0.0316 µM
[20] = second compound 1 µM, first compound 0.1 µM
[21] = second compound 1 µM, first compound 0.316 µM
[22] = second compound 1 µM, first compound 1 µM
[23] = second compound 1 µM, first compound 3.16 µM
[24] = second compound 1 µM, first compound 10 µM
[25] = second compound 3.16 µM, first compound 0.0316 µM
[26] = second compound 3.16 µM, first compound 0.1 µM
[27] = second compound 3.16 µM, first compound 0.316 µM
[28] = second compound 3.16 µM, first compound 1 µM
[29] = second compound 3.16 µM, first compound 3.16 µM
[30] = second compound 3.16 µM, first compound 10 µM
[31] = second compound 10 µM, first compound 0.0316 µM
[32] = second compound 10 µM, first compound 0.1 µM
[33] = second compound 10 µM, first compound 0.316 µM
[34] = second compound 10 µM, first compound 1 µM
[35] = second compound 10 µM, first compound 3.16 µM
[36] = second compound 10 µM, first compound 10 µM
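Note: spheroids exposed to agents for seven days before readout.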

Compound: C[C@@H](NC(=O)c1ncnc(N)c1Cl)c1ncc(C(=O)Nc2cc(C(F)(F)F)c(Cl)cn2)s1 + C#Cc1c(F)ccc2cc(O)cc(-c3ncc4c(N5CC6CCC(C5)N6)nc(OCC56CCCN5CC(F)C6)nc4c3F)c12
- IC50 (second compound 0.0316 µM): > 10 µM
- IC50 (second compound 0.1 µM): > 10 µM
- IC50 (second compound 0.316 µM): > 10 µM
- IC50 (second compound 1 µM): > 10 µM
- IC50 (second compound 3.16 µM): > 10 µM
- IC50 (second compound 10 µM): 0.528 µM
- viability, T/C [1]: 103%
- viability, T/C [2]: 105%
- viability, T/C [3]: 114%
- viability, T/C [4]: 114%
- viability, T/C [5]: 98%
- viability, T/C [6]: 69.7%
- viability, T/C [7]: 111%
- viability, T/C [8]: 115%
- viability, T/C [9]: 113%
- viability, T/C [10]: 113%
- viability, T/C [11]: 96.5%
- viability, T/C [12]: 57.9%
- viability, T/C [13]: 101%
- viability, T/C [14]: 104%
- viability, T/C [15]: 105%
- viability, T/C [16]: 100%
- viability, T/C [17]: 93.2%
- viability, T/C [18]: 75.2%
- viability, T/C [19]: 109%
- viability, T/C [20]: 106%
- viability, T/C [21]: 104%
- viability, T/C [22]: 106%
- viability, T/C [23]: 96%
- viability, T/C [24]: 69.9%
- viability, T/C [25]: 97.6%
- viability, T/C [26]: 98.6%
- viability, T/C [27]: 94.5%
- viability, T/C [28]: 93.3%
- viability, T/C [29]: 89.1%
- viability, T/C [30]: 62%
- viability, T/C [31]: 53.5%
- viability, T/C [32]: 50.5%
- viability, T/C [33]: 50.3%
- viability, T/C [34]: 46%
- viability, T/C [35]: 52.6%
- viability, T/C [36]: 46.9%

Compound: CC(C)NCC(C(=O)N1CCN(c2ncnc3c2C(C)CC3O)CC1)c1ccc(Cl)cc1 (centres undefined) + C#Cc1c(F)ccc2cc(O)cc(-c3ncc4c(N5CC6CCC(C5)N6)nc(OCC56CCCN5CC(F)C6)nc4c3F)c12
- IC50 (second compound 0.0316 µM): > 10 µM
- IC50 (second compound 0.1 µM): > 10 µM
- IC50 (second compound 0.316 µM): > 10 µM
- IC50 (second compound 1 µM): 8.24 µM
- IC50 (second compound 3.16 µM): 4.34 µM
- IC50 (second compound 10 µM): < 0.0316 µM
- viability, T/C [1]: 116%
- viability, T/C [2]: 98.7%
- viability, T/C [3]: 89.3%
- viability, T/C [4]: 93.5%
- viability, T/C [5]: 77.1%
- viability, T/C [6]: 57.8%
- viability, T/C [7]: 101%
- viability, T/C [8]: 88.8%
- viability, T/C [9]: 90.3%
- viability, T/C [10]: 83.3%
- viability, T/C [11]: 77.2%
- viability, T/C [12]: 57.9%
- viability, T/C [13]: 99%
- viability, T/C [14]: 101%
- viability, T/C [15]: 93.9%
- viability, T/C [16]: 87.9%
- viability, T/C [17]: 71.2%
- viability, T/C [18]: 55%
- viability, T/C [19]: 104%
- viability, T/C [20]: 106%
- viability, T/C [21]: 93.5%
- viability, T/C [22]: 74.9%
- viability, T/C [23]: 61.9%
- viability, T/C [24]: 47%
- viability, T/C [25]: 73.7%
- viability, T/C [26]: 74%
- viability, T/C [27]: 75.2%
- viability, T/C [28]: 70.8%
- viability, T/C [29]: 54.2%
- viability, T/C [30]: 38.9%
- viability, T/C [31]: 44.1%
- viability, T/C [32]: 39.4%
- viability, T/C [33]: 40.3%
- viability, T/C [34]: 35.4%
- viability, T/C [35]: 35.3%
- viability, T/C [36]: 26.9%
